# In ChEMBL document CHEMBL4831492, “Design and synthesis of 2-(2-isonicotinoylhydrazineylidene)propanamides as InhA inhibitors with high antitubercular activity” (Eur J Med Chem, 2021):
# Columns and labels:
# Type in all cases: functional
# [1] = system: Mycobacterium tuberculosis; assay: Antimycobacterial activity against multi drug-resistant Mycobacterium tuberculosis 7357/1998 assessed as minimal inhibitory concentration required for complete inhibition of mycobacterial growth incubated for 21 days; details: 7357/1998, 504 h, time 21 day
# [2] = system: Mycobacterium tuberculosis; assay: Antimycobacterial activity against multi drug-resistant Mycobacterium tuberculosis 8666/2010 assessed as minimal inhibitory concentration required for complete inhibition of mycobacterial growth incubated for 21 days; details: 8666/2010, 504 h, time 21 day
# [3] = system: Mycobacterium tuberculosis; assay: Antimycobacterial activity against multi drug-resistant Mycobacterium tuberculosis praha 1 assessed as minimal inhibitory concentration required for complete inhibition of mycobacterial growth incubated for 14 days; details: praha 1, 336 h, time 14 day
# [4] = system: Mycobacterium tuberculosis; assay: Antimycobacterial activity against multi drug-resistant Mycobacterium tuberculosis 8666/2010 assessed as minimal inhibitory concentration required for complete inhibition of mycobacterial growth incubated for 14 days; details: 8666/2010, 336 h, time 14 day
# [5] = system: Mycobacterium tuberculosis; assay: Antimycobacterial activity against multi drug-resistant Mycobacterium tuberculosis praha 131 assessed as minimal inhibitory concentration required for complete inhibition of mycobacterial growth incubated for 21 days; details: praha 131, 504 h, time 21 day
# [6] = system: Mycobacterium tuberculosis; assay: Antimycobacterial activity against multi drug-resistant Mycobacterium tuberculosis 234/2005 assessed as minimal inhibitory concentration required for complete inhibition of mycobacterial growth incubated for 21 days; details: 234/2005, 504 h, time 21 day
# [7] = system: Mycobacterium tuberculosis; assay: Antimycobacterial activity against multi drug-resistant Mycobacterium tuberculosis praha 131 assessed as minimal inhibitory concentration required for complete inhibition of mycobacterial growth incubated for 14 days; details: praha 131, 336 h, time 14 day
# [8] = system: Mycobacterium tuberculosis; assay: Antimycobacterial activity against multi drug-resistant Mycobacterium tuberculosis 234/2005 assessed as minimal inhibitory concentration required for complete inhibition of mycobacterial growth incubated for 14 days; details: 234/2005, 336 h, time 14 day
# [9] = system: Mycobacterium tuberculosis; assay: Antimycobacterial activity against multi drug-resistant Mycobacterium tuberculosis 7357/1998 assessed as minimal inhibitory concentration required for complete inhibition of mycobacterial growth incubated for 14 days; details: 7357/1998, 336 h, time 14 day
# [10] = system: Mycobacterium tuberculosis; assay: Antimycobacterial activity against multi drug-resistant Mycobacterium tuberculosis 9449/2007 assessed as minimal inhibitory concentration required for complete inhibition of mycobacterial growth incubated for 14 days; details: 9449/2007, 336 h, time 14 day
# [11] = system: Mycobacterium tuberculosis; assay: Antimycobacterial activity against multi drug-resistant Mycobacterium tuberculosis praha 4 assessed as minimal inhibitory concentration required for complete inhibition of mycobacterial growth incubated for 21 days; details: praha 4, 504 h, time 21 day
# [12] = system: Mycobacterium tuberculosis; assay: Antimycobacterial activity against multi drug-resistant Mycobacterium tuberculosis praha 4 assessed as minimal inhibitory concentration required for complete inhibition of mycobacterial growth incubated for 14 days; details: praha 4, 336 h, time 14 day
# [13] = system: Mycobacterium tuberculosis; assay: Antimycobacterial activity against multi drug-resistant Mycobacterium tuberculosis 9449/2007 assessed as minimal inhibitory concentration required for complete inhibition of mycobacterial growth incubated for 21 days; details: 9449/2007, 504 h, time 21 day
# [14] = system: Mycobacterium tuberculosis; assay: Antimycobacterial activity against multi drug-resistant Mycobacterium tuberculosis praha 1 assessed as minimal inhibitory concentration required for complete inhibition of mycobacterial growth incubated for 21 days; details: praha 1, 504 h, time 21 day
# [15] = system: Mycobacterium tuberculosis; assay: Antimycobacterial activity against Mycobacterium tuberculosis H37Ra overexpressing InhA assessed as bacterial growth inhibition incubated for 28 days by drop dilution method; details: 672 h, time 28 day
# [16] = system: Mycobacterium tuberculosis; assay: Antimycobacterial activity against Mycobacterium tuberculosis H37Ra overexpressing KatGs-meg assessed as bacterial growth inhibition incubated for 28 days by drop dilution method; details: 672 h, time 28 day
SMILES,MIC [1] [µM],MIC [2] [µM],MIC [3] [µM],MIC [4] [µM],MIC [5] [µM],MIC [6] [µM],MIC [7] [µM],MIC [8] [µM],MIC [9] [µM],MIC [10] [µM],MIC [11] [µM],MIC [12] [µM],MIC [13] [µM],MIC [14] [µM],MIC [15] [µM],MIC [16] [µM]
C/C(=N\NC(=O)c1ccncc1)C(=O)Nc1ccc(Br)cc1,32,32,32,32,64,64,32,32,32,32,32,32,64,32,–,–
C/C(=N\NC(=O)c1ccncc1)C(=O)Nc1ccc(F)cc1,64,32,64,32,64,125,64,64,64,32,64,32,32,64,–,–
C/C(=N\NC(=O)c1ccncc1)C(=O)Nc1ccc(Cl)cc1,32,16,32,8,64,64,32,32,32,32,32,32,64,32,–,–
C/C(=N\NC(=O)c1ccncc1)C(=O)Nc1ccc(C(F)(F)F)cc1,64,32,32,32,64,64,64,32,32,32,64,32,32,64,–,–
C/C(=N\NC(=O)c1ccncc1)C(=O)Nc1ccc(I)cc1,32,16,16,8,16,16,8,16,16,8,32,16,16,32,12.5,0.25
C/C(=N\NC(=O)c1ccncc1)C(=O)Nc1cccc(Cl)c1,32,32,32,16,64,64,32,64,32,32,32,32,64,32,–,–
C/C(=N\NC(=O)c1ccncc1)C(=O)Nc1ccc(Cl)c(Cl)c1,125,32,64,32,64,125,32,64,64,32,125,64,32,125,–,–
C/C(=N\NC(=O)c1ccncc1)C(=O)Nc1ccc(OC(F)(F)F)cc1,64,64,64,32,64,32,64,32,32,32,64,32,64,64,6,0.15
